Laboratory results from patent US9827219B2, “Compositions and methods for lowering levels of high-sensitivity C-reactive protein (HS-CRP) in a subject” (priority 2012, dated 2017).

Assays:
Format in all cases: in vivo, human
Ox-LDL [1] = experiment: ANCHOR study, oxidized LDL; conditions: ANCHOR ITT, week 12
Description: (§1) Parameters (a)-(y) can be measured in accordance with any clinically acceptable methodology. For example, triglycerides, total cholesterol, HDL-C and fasting blood sugar can be sample from serum and analyzed using standard photometry techniques. VLDL-TG, LDL-C and VLDL-C can be calculated or determined using serum lipoprotein fractionation by preparative ultracentrifugation and subsequent quantitative analysis by refractometry or by analytic ultracentrifugal methodology. Apo A1, Apo B and hsCRP can be determined from serum using standard nephelometry techniques. Lipoprotein (a) can be determined from serum using standard turbidimetric immunoassay techniques. LDL particle number and particle size can be determined using nuclear magnetic resonance (NMR) spectrometry. Remnants lipoproteins and LDL-phospholipase A2 can be determined from EDTA plasma or serum and serum, respectively, using enzymatic immunoseparation techniques. Oxidized LDL, intercellular adhesion molecule-1 and interleukin-2 levels can be determined from serum using standard enzyme immunoassay techniques. These techniques are described in detail in standard textbooks, for example Tietz Fundamentals of Clinical Chemistry, 6th Ed. (Burtis, Ashwood and Borter Eds.), WB Saunders Company. […]

TG = TG in patients with diabetes mellitus-2 (Example 2); conditions: 4 g/day, 12 weeks, on statin
Description: as §1, with “Ed.” for “Ed. (Burtis, Ashwood and Borter Eds.), WB Saunders Company.”
The effect of >96% E-EPA on lipid and inflammatory parameters was evaluated in patients with fasting triglyceride levels ≧150 mg/dl and <499 mg/dl on concomitant statin therapy. […]

Lp-PLA2 = experiment: ANCHOR study, Lp-PLA2; conditions: ANCHOR ITT, week 12
Description: (§2) Parameters (a)-(y) can be measured in accordance with any clinically acceptable methodology. For example, triglycerides, total cholesterol, HDL-C and fasting blood sugar can be sample from serum and analyzed using standard photometry techniques. VLDL-TG, LDL-C and VLDL-C can be calculated or determined using serum lipoprotein fractionation by preparative ultracentrifugation and subsequent quantitative analysis by refractometry or by analytic ultracentrifugal methodology. Apo A1, Apo B and hsCRP can be determined from serum using standard nephelometry techniques. Lipoprotein (a) can be determined from serum using standard turbidimetric immunoassay techniques. LDL particle number and particle size can be determined using nuclear magnetic resonance (NMR) spectrometry. Remnants lipoproteins and LDL-phospholipase A2 can be determined from EDTA plasma or serum and serum, respectively, using enzymatic immunoseparation techniques. Oxidized LDL, intercellular adhesion molecule-1 and interleukin-2 levels can be determined from serum using standard enzyme immunoassay techniques. These techniques are described in detail in standard textbooks, for example Tietz Fundamentals of Clinical Chemistry, 6th Ed. (Burtis, Ashwood and Borter Eds.), WB Saunders Company.
A multi-center, placebo-controlled, randomized, double-blind, 12-week study was performed to evaluate the efficacy and safety of >96% E-EPA in patients with fasting triglyceride levels ≧200 mg/dl and <500 mg/dl despite statin therapy (the mean of two qualifying entry values needed to be ≧185 mg/dl and at least one of the values needs to be ≧200 mg/dl). The primary objective of the study was to determine the efficacy of >96% E-EPA 2 g daily and 4 g daily, compared to placebo, in lowering fasting TG levels in patients with high risk for cardiovascular disease and with fasting TG levels ≧200 mg/dL and <500 mg/dL, despite treatment to LDL-C goal on statin therapy. […]

RLP-C = RLP-C in patients with diabetes mellitus-2 (Example 2); conditions: 4 g/day, 12 weeks, on statin
Description: as §2
The effect of >96% E-EPA on lipid and inflammatory parameters was evaluated in patients with fasting triglyceride levels ≧150 mg/dl and <499 mg/dl on concomitant statin therapy. Patients with diabetes mellitus-2 were randomized and treated with either 2 g/day >96% E-EPA, 4 g/day >96%, or placebo for twelve weeks. At the end of the treatment period, several diabetes efficacy endpoints were evaluated including, TG, LDL-C, non-HDL-C, VLDL-C, Lp-PLA2, Apo B, TC, HDL-C, VLDL-TG, hs-CRP, oxLDL, and RLP-C.

Ox-LDL [2] = experiment: MARINE study, oxidized LDL; conditions: MARINE ITT, week 12
Description: as §1

[3] = well-controlled diabetes (HbA1c < median of 6.8%)

SMILES: CC/C=C\C/C=C\C/C=C\C/C=C\C/C=C\CCCC(=O)OCC [AMR101, all-cis eicosa-5,8,11,14,17-pentaenoic acid ethyl ester]
- Ox-LDL change from baseline (median) (Ox-LDL [1]; 2 g/day): 2.6%
- Ox-LDL change from baseline (median) (Ox-LDL [1]; 4 g/day): −4.8%
- Median placebo-adjusted percent change in TG from baseline to study end (TG; total diabetes): −23.2%
- Median placebo-adjusted percent change in TG from baseline to study end (TG; [3]): −21.0%
- Lp-PLA2 change from baseline (median) (Lp-PLA2; 2 g/day): −1.8%
- Lp-PLA2 change from baseline (median) (Lp-PLA2; 4 g/day): −12.8%
- Lp-PLA2 end-of-treatment value (median) (Lp-PLA2; 4 g/day): 160.0 ng/mL
- Median placebo-adjusted percent change in RLP-C from baseline to study end (RLP-C; less-controlled diabetes (HbA1c ≧ median of 6.8%)): −21.3%
- Median placebo-adjusted percent change in RLP-C from baseline to study end (RLP-C; total diabetes): −25.0%
- Median placebo-adjusted percent change in RLP-C from baseline to study end (RLP-C; [3]): −26.7%
- Ox-LDL change from baseline (median) (Ox-LDL [2]; 2 g/day): 0.4%
- Ox-LDL change from baseline (median) (Ox-LDL [2]; 4 g/day): −3.0%
